In publication PMC8948797 (International Journal of Molecular Sciences, 2022):

Tested on: hALN
Test: cytoplasmic calcium measurements (Fluo-8) in hALN
Type: cell-based, human
Details: 50 mM KCl, 21–30-day-old hALN, Figure S2
Text: Figure 3 Characterization of the hALN. (A) 1 s-long depolarizing, and hyperpolarizing pulses injected into a hALN neuron. […] (E) Representative image of Fluo-8-loaded cells and region of interest for individual cells for intensity measurements (white line). […] Data are presented as fluorescence intensity in arbitrary units.
To test the effect of NPFFR2 on the cytoplasmic calcium dynamics, we measured intracellular calcium concentrations using hALNs loaded with Fluo-8. Typically, neurons display calcium oscillations with synchronized patterns, as cells become mature and capable of forming electrical connections with one another. We first recorded basal spontaneous activity in 21–30-day old hALNs and observed synchronized calcium oscillations in 30–70% of cells (Figure 3D–F).
In 8 ± 3% cells, we detected no change, and the remaining 13 ± 5% cells increased their oscillation rate (n = 12).
Cytosolic (Ca2+)i was measured using Ca^2+ indicator Fluo-8. […] Baseline signal was measured at 488 nm excitation and 510 nm emission using inCell analyzer 2000 for 5 min. […] After the background subtraction, calcium responses were processed and analyzed using ImageJ. Mean intensity over time was measured in ROIs including cytoplasmic soma area of individual cells and their traceable extensions. […] Data are presented as fluorescence intensity in arbitrary units. […]

For `[Cl-].[K+]` [KCl], the “cytoplasmic calcium response to KCl” value was “induced a cytoplasmic calcium transient increase”.
